Columns and labels:
[1] = tested on: Enterococcus faecium LWP 50-52; assay: Influence of signal peptide on bacteriocin 50-52 production, flask culture (fraction protein at 215 nm, activity by spot-test against C. jejuni and S. enteritidis); format: cell-based; settings: LWP 50-52, no inducer
[2] = tested on: Enterococcus faecium LWP 50-52; assay: Bacteriocin 50-52 production with signal peptide under scaled-up cultivation (bioreactor); format: cell-based; settings: LWP 50-52 + LWP-320, 0.22 mg peptide added after 2 hours of cultivation, about 12 hours
Protocol: The antagonistic activity of the bacteriocins produced when using the signal peptide and an inducer strain of bacteria against C. jejuni and S. enteritidis was assessed using a Spot Test. The steps included taking various concentrations of pure preparation (μg/ml) of the bacteriocin in approximately 10 microliters of volume plated onto blood-supplemented Campylobacter agar or Nutrient agar (MPA or Meta Peptone Agar) previously seeded with cells of target bacteria. Plates containing cultures of C. jejuni were grown at about 42° C., under microaerobic conditions. Plates containing S. enteritidis were grown at about 37° C. under aerobic conditions. Activity of the bacteriocin was expressed in arbitrary units (AU) per one milliliter of the preparation at which a visible zone of inhibition of the growth of culture appears (Henderson et al., Archives of Biochemistry and Biophysics, Volume 295, 5-12, 1992; herein incorporated by reference). Specific activity can also expressed as arbitrary units per milligram of pure bacteriocin.
Isolation of bacteriocin 50-52 involved two steps: (1) the isolation of bacteriocin from the supernatant of the culture fluid and (2) the isolation of bacteriocin from the precipitate of cells of both the inducing and the producing strains. In step 1, the cultures were harvested and separated by centrifugation at about 10,000×g for about 15 minutes to precipitate the cells. The supernatant was applied to an Octyl Sepharose 4 Fast Flow column to recover the bacteriocin using an elution buffer of about 20 mM K2HPO4 buffer, pH approximately 7.0. The cell precipitate from step 2 was suspended in phosphate buffer with about 0.7% NaCl, pH approximately 5.6 (elution buffer) and the suspension was mixed and incubated for about 20 minutes. After incubation, the suspension was centrifuged at about 10,000×g for about 15 minutes. The bacteriocin was isolated from the supernatant using ion-exchange chromatography on Superose SP Fast Flow using an elution buffer containing about 10 mM Tris HCl and about 125 mM NaCl, pH approximately 7.5. Antagonistic activities of the bacteriocin fractions against C. jejuni and S. enteritidis were assessed in a spot-test. The level of purity of bacteriocins was determined by SDS-PAGE. The isoelectric points of the fractions were determined using isoelectricfocusing. Concentrations of protein for all bacteriocin fractions were determined at approximately 215 nm using a spectrophotometric method.
To evaluate influence of the signal peptide on bacteriocin production under scaled-up cultivation, producing and inducing strains were grown in a V-6 liter bioreactor containing about 6 liters of medium. The ratio of concentrations of cultures and the signal peptide was maintained as in Table 5 for the conditions of 10% Brucella Broth, LWP 50-52, LWP 320, 0.01 mg/ml of LWP 50-52 signal peptide added after about 2 hours of cultivation. Isolation of bacteriocin 50-52 was performed at about 8, 10, 12, and 14 hours of cultivation as described above. The control contained 10% Brucella Broth, LWP 50-52, LWP-320, at a pH of approximately 6.9, at about 37° C., and about 150 rpm. The bacteriocin 50-52 was isolated after about 12 hours of cultivation. For the second condition, the conditions were the same except that approximately 0.22 mg of LWP 50-52 signal peptide was added after 2 hours of cultivation. Each condition was repeated three times.

[3] = peptide 0.001 mg/ml added after about 2 hours
[4] = peptide 0.001 mg/ml added after about 4 hours
[5] = peptide 0.001 mg/ml added after about 6 hours
[6] = peptide 0.01 mg.ml added after about 4 hours
[7] = peptide 0.01 mg.ml added after about 6 hours
[8] = peptide 0.01 mg/ml added after about 2 hours
[9] = peptide 0.1 mg/ml added after about 2 hours
[10] = peptide 0.10 mg/ml added after about 4 hours
[11] = peptide 0.10 mg/ml added after about 6 hours

TNVTKSWWVLAGCNQVVASNCNCGNVKGLT (listed as Enterococcus faecium) [LWP 50-52 Signal Peptide, signal peptide isolated from Enterococcus faecium LWP 50-52, stimulates bacteriocin 50-52 production]
Protein increase vs. Control ([1]; peptide 0.001 mg/ml): 1 | Specific Activity ([1]; peptide 0.001 mg/ml): 3,276,800 AU/mg | mg protein/liter ([1]; peptide 0.001 mg/ml): 82.5 mg protein/liter | Activity [1, 3]: 819,200 AU/ml | Protein Concentration [1, 3]: 0.25 mg/mL | Protein increase vs. Control [1, 3]: 1 | Specific Activity [1, 3]: 3,276,800 AU/mg | mg protein/liter [1, 3]: 82.5 mg protein/liter | Activity [1, 4]: 819,200 AU/ml | Protein Concentration [1, 4]: 0.25 mg/mL | Protein increase vs. Control [1, 4]: 1 | Specific Activity [1, 4]: 3,276,800 AU/mg | mg protein/liter [1, 4]: 82.5 mg protein/liter | Activity [1, 5]: 819,200 AU/ml | Protein Concentration [1, 5]: 0.25 mg/mL | Protein increase vs. Control [1, 5]: 1 | Specific Activity [1, 5]: 3,276,800 AU/mg | mg protein/liter [1, 5]: 82.5 mg protein/liter | Activity [1, 6]: 819,200 AU/ml | Protein Concentration [1, 6]: 0.27 mg/mL | Protein increase vs. Control [1, 6]: 1.08 | Specific Activity [1, 6]: 3,034,074 AU/mg | mg protein/liter [1, 6]: 89.1 mg protein/liter | Activity [1, 7]: 819,200 AU/ml | Protein Concentration [1, 7]: 0.27 mg/mL | Protein increase vs. Control [1, 7]: 1.08 | Specific Activity [1, 7]: 3,034,074 AU/mg | mg protein/liter [1, 7]: 89.1 mg protein/liter | Activity ([1]; peptide 0.01 mg/ml): 819,200 AU/ml | Protein Concentration ([1]; peptide 0.01 mg/ml): 0.27 mg/mL | Protein increase vs. Control ([1]; peptide 0.01 mg/ml): 1.08 | Specific Activity ([1]; peptide 0.01 mg/ml): 3,034,074 AU/mg | mg protein/liter ([1]; peptide 0.01 mg/ml): 89.1 mg protein/liter | Activity [1, 8]: 819,200 AU/ml | Protein Concentration [1, 8]: 0.31 mg/mL | Protein increase vs. Control [1, 8]: 1.24 | Specific Activity [1, 8]: 2,642,580 AU/mg | mg protein/liter [1, 8]: 102.3 mg protein/liter | Activity ([1]; peptide 0.1 mg/ml): 819,200 AU/ml | Protein Concentration ([1]; peptide 0.1 mg/ml): 0.25 mg/mL | Protein increase vs. Control ([1]; peptide 0.1 mg/ml): 1 | Specific Activity ([1]; peptide 0.1 mg/ml): 3,276,800 AU/mg | mg protein/liter ([1]; peptide 0.1 mg/ml): 82.5 mg protein/liter | Activity [1, 9]: 819,200 AU/ml | Protein Concentration [1, 9]: 0.27 mg/mL | Protein increase vs. Control [1, 9]: 1.08 | Specific Activity [1, 9]: 3,034,074 AU/mg | mg protein/liter [1, 9]: 89.1 mg protein/liter | Activity [1, 10]: 819,200 AU/ml | Protein Concentration [1, 10]: 0.27 mg/mL | Protein increase vs. Control [1, 10]: 1.08 | Specific Activity [1, 10]: 3,034,074 AU/mg | mg protein/liter [1, 10]: 89.1 mg protein/liter | Activity [1, 11]: 819,200 AU/ml | Protein Concentration [1, 11]: 0.26 mg/mL | Protein increase vs. Control [1, 11]: 1.04 | Specific Activity [1, 11]: 3,150,769 AU/mg | mg protein/liter [1, 11]: 85.8 mg protein/liter | Activity [2]: 6,553,600 AU/ml | Increase in the amount of protein vs. control [2]: 4 | Protein Concentration [2]: 2.4 mg/mL | Specific Activity [2]: 2,730,665 AU/mg | Amount of Protein/liter of medium ([2]; listed as LWP 50-52 signal Peptide): 360 mg | Amount of Protein/liter of medium ([2]; listed as LWP 50-52 signal peptide): about 360 mg
